Laboratory results taken from patent US8956646B2, “Zwitterionic lipids” (The Regents of the University of California, priority 2010, dated 2015).
“Also recorded” adds a separate entry of the source.

How the values were obtained:
[1] = literature values, cited from earlier work; for Transition Temperatures (° C.), PC: PC headgroup; for Transition Temperatures (° C.), PE: PE headgroup
[2] = ZNLP hydrodynamic diameter, zeta potential and encapsulation efficiency; format: physicochemical; details: ZNLP encapsulating siRNA
Procedure: 5-10 min after particle formation liposomes are extruded through either 50 nm or 80 nm polycarbonate membranes 7 times. Methanol can be removed by either evaporation or dialysis.
FIG. 29 is a table showing ZNLP encapsulating siRNA: hydrodynamic diameter and zeta potential: siRNA was encapsulated into ZNLP from various zwitterionic lipids.
FIG. 30 is a table showing the effect of helper lipids on size and encapsulation efficiency: Changing helper lipid and lipid composition affects size and encapsulation efficiency of ZNLP. DOBA-Q formed small lipid vesicles≦80 nm. […] All lipid formulations display negative/neutral zeta potential.

[3] = SBL liposome formation, diameter and PDI in various salts; format: physicochemical; design: key to Liposome diameter (nm): DNF=Did Not Form, no liposomes formed
Procedure: The five SBLs were first examined for their ability to make vesicles under standard buffer conditions (10 mM HEPES, 140 mM NaCl, pH 7.4). We observed that none of the five SBLs were able to form stable liposomes after thin film rehydration in this buffer followed by sonication at 80° C. […] To test if the SB headgroup inner salt interactions could be disrupted by an increase in salt concentration, the same liposome formation process was performed at increasing NaCl concentrations. Salts with different anions were also tested to determine if those predicted to have greater binding than Cl^− would allow for liposome formation at concentrations where NaCl was not able to. Liposome-formation results are shown in Table 4 for all five SBLs with a variety of salts and at various NaCl concentrations.
Liposome preparations were made at 26 mM lipid in 10 mM HEPES buffer, pH 7.4 with the specified salt concentration. All preparations were rehydrated and sonicated at 80° C. for 7 minutes, allowed to cool for 5 minutes and then measured.
Liposome diameters were measured both five minutes after sonication and at 24 hours. DPSB and DSSB in NaI both formed gels and could not be measured and DPSB and DSSB with KBr precipitated into particles too large and polydisperse for measurement.

[4] = Phase transition temperatures of sulfobetaine lipids (DSC); format: physicochemical; details: for inner/outer salt form (high/low transition) as function of NaCl concentration: DSC, 10 mM HEPES pH 7.4, NaCl up to 1M; for Transition Temperatures (° C.), SB Inner Salt: hypothesized inner salt form, observed high phase transition; for Transition Temperatures (° C.), SB Outer Salt: hypothesized outer salt form, observed low phase transition
Procedure: All buffers contain 10 mM HEPES, pH 7.4. Preparations were made at 26 mM SB lipid by thin film rehydration at 80° C., followed by brief 20 second bursts of sonication at 80° C. (˜2-4 times) to make dispersions of large bilayer fragments.
Based on our observations that SBL liposome formation and stability is largely dependent on salt composition and concentration we sought to determine if these effects changed the transition temperatures of the liposomes. The data in FIG. 3 clearly depicts a bi-modal phase transition behavior for the SBLs. Without salt, the majority of the SBLs are likely in one of the inner salt forms supported by the observed elevated transition temperatures.
Inner and outer salt conformations of the SBLs are hypothesized to coordinate to the observed high and low phase transitions, respectively.

[5] = Zeta/surface potential of SBL liposomes in salt solutions; format: physicochemical; details: order of anions; data not shown
Text: The vesicles formed in these three salts were all reasonably small, with those formed in KBr having, on average, a slighter larger diameter. This may be due the weaker binding of Br^− to the cationic region of the SBLs relative to I^− and ClO4^−, which would result in a higher percentage of SBLs in the inner-salt conformation.

[6] = Zeta potential of BLL containing vesicles as a function of pH; format: physicochemical; details: changing ratio of DOBAQ:DOPC
Procedure: Liposomes containing quaternary BLL remain neutral at pH>pI, while liposomes containing tertiary BLL move from neutral to anionic as pH increases above the pI due to deprotonation of the amine.
All other lipids show pH responsive behavior, with 4° BLL generally transitioning from cationic to neutral, and 3° from cationic to neutral to anionic.
Further analysis is required to fully understand this behavior.

[7] = Zeta potential of liposomes as a function of calcium concentration; format: physicochemical; details: across physiological Ca2+ concentrations
Procedure: Liposomes were prepared from either DOPC or DOCPe and their zeta potentials were measured in a Malvern zetaNano instrument as a function of the calcium concentration. Liposomes prepared from either lipid become more positively charged as the Ca^2+ concentration increases.

[8] = 0 mM NaCl, 26 mM lipid, 10 mM HEPES pH 7.4
[9] = 150 mM KBr, five minutes after sonication
[10] = 150 mM NaCl, 26 mM lipid, 10 mM HEPES pH 7.4
[11] = 150 mM NaClO4, five minutes after sonication
[12] = 150 mM NaI, five minutes after sonication
[13] = 500 mM NaCl, 26 mM lipid, 10 mM HEPES pH 7.4
[14] = 1000 mM NaCl, 26 mM lipid, 10 mM HEPES pH 7.4

| Liposome diameter (nm) [3, 8] | Liposome diameter (nm) ([3]; 150 mM KBr (24 h)) | Liposome diameter (nm) [3, 9] | PDI [3, 9] | Liposome diameter (nm) [3, 10] | Liposome diameter (nm) ([3]; 150 mM NaClO4 (24 h)) | PDI ([3]; 150 mM NaClO4 (24 h)) | Liposome diameter (nm) [3, 11] | PDI [3, 11] | Liposome diameter (nm) ([3]; 150 mM NaF) | Liposome diameter (nm) ([3]; 150 mM NaI (24 h)) | Liposome diameter (nm) [3, 12] | PDI [3, 12] | Liposome diameter (nm) [3, 13] | PDI [3, 13] | Liposome diameter (nm) [3, 14] | PDI [3, 14] | Structure (SMILES) | also measured |
| --- | --- | --- | --- | --- | --- | --- | --- | --- | --- | --- | --- | --- | --- | --- | --- | --- | --- | --- |
| – | – | – | – | – | – | – | – | – | – | – | – | – | – | – | – | – | CCCCCCCCCCCCCC(=O)OC[C@H](COP(=O)([O-])OCC[N+](C)(C)C)OC(=O)CCCCCCCCCCCCC [C14 PC] | Transition Temperatures (° C.), PC [1]: 24.2 °C |
| – | – | – | – | – | – | – | – | – | – | – | – | – | – | – | – | – | CCCCCCCCCCCCCC(=O)OC[C@H](COP(=O)(O)OCCN)OC(=O)CCCCCCCCCCCCC [C14 PE] | Transition Temperatures (° C.), PE [1]: 49.4 °C |
| – | – | – | – | – | – | – | – | – | – | – | – | – | – | – | – | – | CCCCCCCCCCCCCCCC(=O)OC[C@H](COP(=O)([O-])OCC[N+](C)(C)C)OC(=O)CCCCCCCCCCCCCCC [C16 PC] | Transition Temperatures (° C.), PC [1]: 41.7 °C |
| – | – | – | – | – | – | – | – | – | – | – | – | – | – | – | – | – | CCCCCCCCCCCCCCCC(=O)OCC(COP(=O)(O)OCCN)OC(=O)CCCCCCCCCCCCCCC (stereo not shown) [C16 PE] | Transition Temperatures (° C.), PE [1]: 63.5 °C |
| – | – | – | – | – | – | – | – | – | – | – | – | – | – | – | – | – | CCCCCCCCCCCCCCCCCC(=O)OC[C@H](COP(=O)([O-])OCC[N+](C)(C)C)OC(=O)CCCCCCCCCCCCCCCCC [C18 PC] | Transition Temperatures (° C.), PC [1]: 55.3 °C |
| – | – | – | – | – | – | – | – | – | – | – | – | – | – | – | – | – | CCCCCCCCCCCCCCCCCC(=O)OC[C@H](COP(=O)(O)OCCN)OC(=O)CCCCCCCCCCCCCCCCC [C18 PE] | Transition Temperatures (° C.), PE [1]: 74.4 °C |
| – | – | – | – | – | – | – | – | – | – | – | – | – | – | – | – | – | CCCCC/C=C\C/C=C\CCCCCCCC(=O)OC[C@H](COP(=O)(O)OCCN)OC(=O)CCCCCCC/C=C\C/C=C\CCCCC [DIinPE, reference compound] | siRNA encapsulation efficiency [2]: decreases encapsulation efficiency |
| DNF | 74.35 nm | 54.56 nm | 0.276 | 1728 nm | 37.32 nm | 0.251 | 30.46 nm | 0.205 | DNF | 39.24 nm | 28.93 nm | 0.163 | 41.7 nm | 0.296 | 56.5 nm | 0.361 | CCCCCCCCCCCC(=O)OCC(C[N+](C)(C)CCCS(=O)(=O)[O-])OC(=O)CCCCCCCCCCC (stereo not shown) [DLSB] | ability to make vesicles under standard buffer conditions ([3]; 10 mM HEPES, 140 mM NaCl, pH 7.4, thin film rehydration, sonication at 80° C.): formed large, polydisperse structures; PDI ([3]; 150 mM KBr (24 h)): 0.254; PDI [3, 10]: 0.708; PDI ([3]; 150 mM NaI (24 h)): 0.215 |
| DNF | 31.67 nm | 28.53 nm | 0.160 | DNF | 43.68 nm | 0.24 | 41.76 nm | 0.239 | DNF | 38.69 nm | 35.3 nm | 0.232 | 63.92 nm | 0.385 | 76.8 nm | 0.233 | CCCCCCCCCCCCCC(=O)OCC(C[N+](C)(C)CCCS(=O)(=O)[O-])OC(=O)CCCCCCCCCCCCC (stereo not shown) [DMSB] | PDI ([3]; 150 mM KBr (24 h)): 0.181; PDI ([3]; 150 mM NaI (24 h)): 0.250; liposome formation ([3]; 500 mM NaF): unable to form liposomes; phase transitions observed ([4]; 150 mM NaClO4): only the high transition; phase transitions observed ([4]; 150 mM NaF): only the low transition; inner/outer salt form (high/low transition) as function of NaCl concentration [4]: existing as the outer salt with a high transition temperature for all NaCl concentrations up to 1M; Transition Temperatures (° C.), SB Inner Salt [4]: 48 °C; Transition Temperatures (° C.), SB Outer Salt [4]: 25-30 °C; zeta-potential (surface potential) in various salt solutions [5]: most negative for ClO4^−>I^−>Br^−>Cl^− |
| – | – | – | – | – | – | – | – | – | – | – | – | – | – | – | – | – | CCCCCCCC/C=C\CCCCCCCC(=O)OCC(C[N+](C)(C)Cc1ccc(C(=O)[O-])cc1)OC(=O)CCCCCCC/C=C\CCCCCCCC (stereo not shown) [DOBAQ] | Zeta potential as function of pH, effect of BLL:DOPC ratio [6]: general relationship between pH and zeta potential is maintained at all ratios tested; ZNLP size (hydrodynamic diameter) [2]: ≤ 80 nm |
| – | – | – | – | – | – | – | – | – | – | – | – | – | – | – | – | – | CCCCCCCC/C=C\CCCCCCCC(=O)OCC(C[N+](C)(C)CCOP(=O)([O-])OCC)OC(=O)CCCCCCC/C=C\CCCCCCCC (stereo not shown) [DOCPe] | zeta potential of liposomes [7]: remain negative |
| – | – | – | – | – | – | – | – | – | – | – | – | – | – | – | – | – | CCCCCCCC/C=C\CCCCCCCC(=O)OC[C@H](COP(=O)([O-])OCC[N+](C)(C)C)OC(=O)CCCCCCC/C=C\CCCCCCCC [DOPC, reference compound] | zeta potential of liposomes [7]: become positively charged |
| DNF | 137.6 nm | 120.8 nm | 0.260 | DNF | 69.18 nm | 0.235 | 67.7 nm | 0.250 | DNF | 99.24 nm | 90.58 nm | 0.246 | 126.9 nm | 0.197 | 118.9 nm | 0.176 | CCCCCCCC/C=C\CCCCCCCC(=O)OCC(C[N+](C)(C)CCCS(=O)(=O)[O-])OC(=O)CCCCCCC/C=C\CCCCCCCC (stereo not shown) [DOSB] | PDI ([3]; 150 mM KBr (24 h)): 0.353; PDI ([3]; 150 mM NaI (24 h)): 0.253 |
| DNF | Precipitated | 64.35 nm | 0.134 | DNF | 42.71 nm | 0.353 | 35.1 nm | 0.220 | DNF | Formed Gel | 57.45 nm | 0.296 | 66.95 nm | 0.253 | 92.53 nm | 0.275 | CCCCCCCCCCCCCCCC(=O)OCC(C[N+](C)(C)CCCS(=O)(=O)[O-])OC(=O)CCCCCCCCCCCCCCC (stereo not shown) [DPSB] | phase transitions observed ([4]; 150 mM NaClO4): only the high transition; phase transitions observed ([4]; 150 mM NaF): only the low transition; temperature of residual inner salt transition ([4]; 500 mM NaCl): 58 °C; inner/outer salt form (high/low transition) as function of NaCl concentration [4]: switches from the inner salt to the outer salt at 500 mM; Transition Temperatures (° C.), SB Inner Salt [4]: 60 °C; Transition Temperatures (° C.), SB Outer Salt [4]: 43 °C |
| DNF | Precipitated | 102.3 nm | 0.123 | DNF | 71.96 nm | 0.282 | 42.45 nm | 0.258 | DNF | Formed Gel | 43.31 nm | 0.231 | 122.7 nm | 0.285 | 137.9 nm | 0.404 | CCCCCCCCCCCCCCCCCC(=O)OCC(C[N+](C)(C)CCCS(=O)(=O)[O-])OC(=O)CCCCCCCCCCCCCCCCC (stereo not shown) [DSSB] | phase transitions observed ([4]; 150 mM NaF, NaCl, KBr, NaI, NaClO4): both transitions for all salts except NaClO4; inner/outer salt form (high/low transition) as function of NaCl concentration [4]: never exists completely as the inner salt conformation, but does reside as the outer salt form at 500 mM; also recorded: small low transition peak in a buffer without NaCl; Transition Temperatures (° C.), SB Inner Salt [4]: 68 °C; Transition Temperatures (° C.), SB Outer Salt [4]: 57 °C |
